Laboratory results: US20260232712A1, “Food for Improving Intestinal Environment” (AJINOMOTO CO., INC., priority 2023, published 2026)

How the values were obtained:
[1] = system: C. sporogenes; experiment: Pure culture growth test of C. sporogenes with added amino acid (OD600); assay type: cell-based, Clostridium sporogenes; conditions: amino acid added at final concentration 4 mM; 1/5 diluted medium; vs control; FIG. 1-2
Method: Amino acids that promote the growth of an IPA-producing bacterium C. sporogenes were narrowed down using a genome-scale metabolic model (GEM) simulation, and then evaluated in a pure culture system. The GEM simulation was performed using COBRA toolbox of MATLAB (registered trademark), and amino acids that affected the growth of C. sporogenes when 20 types of amino acids were removed one by one were selected. Then, the influence of amino acids selected by GEM analysis on the growth of C. sporogenes was investigated in a pure culture system. As C. sporogenes, an in-house strain from Ajinomoto Co., Inc. was used, and as the culture medium, ⅕ diluted enhanced Clostridium medium (Difico, #62620609) was used. Each amino acid was added to the medium to a final concentration of 4 mM, and the growth of C. sporogenes was evaluated using OD600 as an indicator. The control contained no addition of amino acid (culture medium only).

[2] = system: C. sporogenes; experiment: IPA production by concentrated C. sporogenes bacterial solution with Trp and/or Phe; assay type: cell-based, Clostridium sporogenes; conditions: 37° C., anaerobic, 24 hr; Trp 0.3 mM fixed, Phe 0.3-1.2 mM; FIG. 1-3
Method: To evaluate the influence of Trp and a combination of Trp and Phe on IPA production, pure culture experiments using C. sporogenes were performed. As C. sporogenes, in-house strain of Ajinomoto Co., Inc. was used. First, 800 μL of C. sporogenes glycerol stock was added to 40 mL of reinforced Clostridium medium and cultured under anaerobic conditions at 37° C. for 18 hr. After culturing, centrifugation was performed at 9,100×g for 5 min at 4° C., and the precipitate was collected under anaerobic conditions, washed twice with PBS, and finally suspended in 5 mL of PBS after anaerobic treatment to obtain a concentrated bacterial solution. The influence of the concentrated bacterial solution on IPA production was investigated. […] Furthermore, similar to Experimental Example 1, the influence of Phe/Trp molar ratios between 1 and 10 on IPA production in C. sporogenes was evaluated using GEM analysis.
The IPA concentration in the culture supernatant was analyzed using an LC-MS/MS mass spectrometry system (mass spectrometer: SCIEX API3200, pump: Shimadzu Corporation LC-20AD, autosampler: Shimadzu Corporation SIL-20AC, column oven: Shimadzu Corporation CTO-20AC, system controller: Shimadzu Corporation CBM-20A, degasser: Shimadzu Corporation DGU-20A, nitrogen generator: Airtech AT5NP-25CSL). […]

How did the “growth of C. sporogenes (OD600)” value [1] turn out when `N[C@@H](Cc1ccccc1)C(=O)O` [Phe, L-phenylalanine] was run?
Its value is “promoted the growth of C. sporogenes”.

What about the “IPA in the culture supernatant” value [2] of the same molecule?
Its value is “no effect”.
